For one compound, zone of inhibition results are on record in ChEMBL document CHEMBL1150697, “Isolation and structure determination of an antimicrobial ester from a marine sediment-derived bacterium” (2003).

Each structure is given as a SMILES string.

Holding throughout (format): functional
Holding throughout (conditions): read-out: IZ

The test system of one assay is Klebsiella pneumoniae. As to the kind of experiment: Antimicrobial activity against sKlebsiella pneumoniae at 1000 ug/mL after 24 hrs by paper disk diffusion method.
The subject of another assay is Micrococcus luteus. Put plainly: Antimicrobial activity against Micrococcus luteus at 1000 ug/mL after 24 hrs by paper disk diffusion method. In general terms: Agar diffusion results depend on both activity and mobility in agar.
The subject of a further assay is Saccharomyces cerevisiae. Put plainly: Antimicrobial activity against Saccharomyces cerevisiae at 1000 ug/mL after 24 hrs by paper disk diffusion method.
In the next assay the test system is Escherichia coli. Put plainly: Antimicrobial activity against Escherichia coli at 1000 ug/mL after 24 hrs by paper disk diffusion method.
Another assay deals with Alcaligenes faecalis. Put plainly: Antimicrobial activity against Alcaligenes faecalis at 1000 ug/mL after 24 hrs by paper disk diffusion method.
A further assay relates to Staphylococcus aureus. As to the kind of experiment: Antimicrobial activity against Staphylococcus aureus at 1000 ug/mL after 24 hrs by paper disk diffusion method.
The test system of another assay is Priestia megaterium. Put plainly: Antimicrobial activity against Bacillus megaterium at 1000 ug/mL after 24 hrs by paper disk diffusion method.

For the compound `CCC(O)CC1CCC(C(C)C(=O)OC(C)CC2CCC(C(C)C(=O)O)O2)O1` (configuration not stated) [BONACTIN], the zone of inhibition at 1000 µg/mL was determined as 8.5 mm with Klebsiella pneumoniae; 8 mm with Micrococcus luteus; 7.5 mm in the assay on Saccharomyces cerevisiae; 9 mm in the assay on Escherichia coli; 10 mm in the assay on Alcaligenes faecalis; 7 mm in the assay on Staphylococcus aureus. In the assay with Priestia megaterium, the zone of inhibition at 1000 µg/mL turned out to be 8 mm.
